One molecule from US7192981B2, “3,4-dihydroxyhydrocinnamic acid derivative” (Bionutrigen Co., Ltd., priority 2005, dated 2007) can be followed below.

Molecules are shown by their SMILES.

For series [1], the system named is PI3-kinase. The series is described as follows: PI3-kinase assay in adipocyte lysate. The format is cell-based, rat. The following applies: adipocytes, 500 μM, 2 h. On the procedure:
Phosphatidylinositide (PI) in DMSO (1 mg/ml) was mixed with an equal volume of buffer A (10 mM HEPES, 100 mM NaCl, 1 mM EGTA, 0.03% NP-40, pH 7.0) and then 10 μl was mixed with an equal volume of buffer B (500 μM [γ-^32P] ATP (10 μCi; Amersham Pharmacia Biotech), 25 mM MgCl2, 15 mM 2-(N-morpholine)ethansulfonic acid, pH 6.8). This mixture was added to 30 μl of adipocyte lysate and incubated for 5 min at room temperature. The kinase reaction was stopped by adding 80 μl of 1 N HCl. A mixture of chloroform and ethanol (1:1, 160 μl) was added to the reaction mixture followed by centrifugation at full speed in a microcentrifuge for 2 min, and 40 μl of the organic phase was extracted. The organic phase was spotted on aluminum-backed silica gel 60 thin layer chromatography (TLC) plates that were pre-soaked in developing solvent (chloroform:methanol:2.2 M NH4OH, 9:7:2), run for 3 h in a TLC chamber with the developing solvent, and air-dried. The amount of phosphoinositides was detected by autoradiography.
In FIG. 7A, the intensity of the PIP3 band was normalized with that of PI, and the relative amount of PIP3 was calculated by (normalized band intensity of sample)/(normalized band intensity of control) (lower panel). Data are means±SEM of three independent experiments.

In series [2] the test system is STZ-induced diabetic C57BL/6 mice. The series is described as follows: Blood glucose and glucose tolerance test in STZ-induced diabetic mice. The settings on record: 150 mg/kg i.p. daily, at 2 weeks after treatment. The class given is in vivo, mouse. The source says:
Male C57BL/6 and C57BL/6 ob/ob mice were purchased from The Jackson Laboratory (Bar Harbor, Me.), and Sprague-Dawley (SD) rats were purchased from Charles River Laboratories (Wilmington, Mass.). The animals were maintained and bred under specific pathogen-free conditions and provided with sterile food and water ad libitum at the Animal Resources Centre, Faculty of Medicine, University of Calgary. The use and care of the animals used in this study were approved by the Animal Care Committee, Faculty of Medicine, University of Calgary.
DHH105 was dissolved in DMSO and emulsified in olive oil (1:50 v/v). DHH105, at a dose of 150 mg/kg body weight (b.w.) in 100 μl, was injected intraperitoneally (i.p.) every day into diabetic ob/ob mice (blood glucose level>230 mg/dl) and STZ-treated diabetic C57BL/6 mice (blood glucose level>300 mg/dl). Control mice received the same amount of olive oil without DHH105. Blood glucose levels were measured with a glucometer (One Touch Ultra, Lifescan, Milpitas, Calif.) every morning between 9:00–10:00 a.m. just before injection of DHH105.
To determine whether treatment with DHH105 can decrease the blood glucose level in STZ-induced diabetic C57BL/6 mice (blood glucose levels>300 mg/dl), mice were treated with DHH105 (150 mg/kd) daily for 2 weeks. […] Blood glucose levels were measured at 0, 15, 30, 60, and 120 min after glucose injection.

Series [3] relates to GLUT4. As to the kind of experiment: GLUT4 translocation, subcellular fractionation and western blot. The class given is cell-based, rat. The following applies: 500 μM, 4 h, vs untreated control adipocytes. On the procedure:
Adipocytes treated with DHH105 for 4 h or insulin for 30 min were washed three times with HES buffer [8 mM HEPES, 250 mM sucrose, 2 mM EDTA, 20 mM NaF, 50 mM NaVO4, 50 mM sodium pyrophosphate, protease inhibitor cocktail (Sigma), and phosphatase inhibitor cocktail (Sigma), pH 7.4]. Adipocytes were homogenized in 20 ml HES buffer with a potter Elvehjem teflon pestle (15 strokes). Homogenates were centrifuged at 1000 g for 10 min and the supernatant was centrifuged again at 16,000 g for 20 min. The resulting pellet was resuspended in 500 μl HES buffer, carefully laid on a discontinuous sucrose gradient (density top to bottom: 1.0592, 1.1270, 1.1533, 1.1764, 1.2575) and centrifuged at 110,000 g for 70 min. The plasma membrane fraction was obtained from the gradient density of 1.1533, diluted in 50 ml HES buffer, and centrifuged at 16,000 g for 20 min. The pellet (plasma membrane fraction) was resuspended in 500 μl HES buffer and stored at −70° C. To obtain the microsomal membrane fraction, the supernatant from the second centrifugation was centrifuged at 220,000 g for 70 min. The pellet was washed, resuspended in 500 μl HES buffer and stored at −70° C. The protein content of each fraction was measured by the Bradford method. […] The membranes were washed and the immunoreactive proteins were detected with an enhanced chemoluminescence western blot detection kit (Amersham Pharmacia Biotech).

Series [4] concerns the target T1, insulin receptor (Rattus norvegicus, UniProt P15127).
T1 construct: endogenous in cells; host or cells: isolated primary adipocytes (rat)
The series is described as follows: Insulin binding assay ([125I]-insulin binding to adipocytes). The following applies: [125I]-insulin 0.1 ng/ml, 2 h. Here is the method: To examine whether DHH105 binds to the insulin receptor and activates the insulin signal transduction pathway, [^125I]-insulin binding to adipocytes was measured in the presence of DHH105. Isolated adipocytes were incubated in KRH buffer for 1 h to remove residual insulin. Adipocytes were then washed three times and resuspended in KRH buffer. Adipocytes (2×10^5 cells/vial) were incubated with DHH105 or insulin in the presence of [^125I]-insulin (0.1 ng/ml; Perkin-Elmer Life and Analytical Sciences, Downers Grove, Ill.) for 2 h at 16° C. in a shaking bath. To measure non-specific binding, 50 μg of unlabelled insulin (Sigma) were added to cells along with [^125I]-insulin. After incubation, adipocytes were harvested by silicon oil and the radioactivity was measured.

T1 sequence (P15127 27-759 limits assumed): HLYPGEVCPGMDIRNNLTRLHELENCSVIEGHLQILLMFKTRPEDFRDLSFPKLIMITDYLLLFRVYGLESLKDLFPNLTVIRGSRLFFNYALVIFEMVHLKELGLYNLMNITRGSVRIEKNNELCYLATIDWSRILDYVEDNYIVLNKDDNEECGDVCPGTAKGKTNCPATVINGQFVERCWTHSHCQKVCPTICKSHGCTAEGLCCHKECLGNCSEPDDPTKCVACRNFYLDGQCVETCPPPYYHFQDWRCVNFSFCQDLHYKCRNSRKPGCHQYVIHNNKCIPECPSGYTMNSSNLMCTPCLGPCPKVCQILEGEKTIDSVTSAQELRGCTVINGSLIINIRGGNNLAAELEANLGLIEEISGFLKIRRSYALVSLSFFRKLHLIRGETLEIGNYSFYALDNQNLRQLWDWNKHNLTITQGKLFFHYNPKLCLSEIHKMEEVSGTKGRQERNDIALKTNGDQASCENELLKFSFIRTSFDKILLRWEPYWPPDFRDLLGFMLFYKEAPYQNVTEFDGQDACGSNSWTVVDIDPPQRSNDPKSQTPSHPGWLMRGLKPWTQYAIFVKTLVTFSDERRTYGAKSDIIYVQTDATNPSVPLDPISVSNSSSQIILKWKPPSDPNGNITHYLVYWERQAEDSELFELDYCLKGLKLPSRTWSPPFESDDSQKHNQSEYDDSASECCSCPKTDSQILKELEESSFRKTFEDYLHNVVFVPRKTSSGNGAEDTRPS
T1 sequence (P15127 764-1383 partner limits assumed): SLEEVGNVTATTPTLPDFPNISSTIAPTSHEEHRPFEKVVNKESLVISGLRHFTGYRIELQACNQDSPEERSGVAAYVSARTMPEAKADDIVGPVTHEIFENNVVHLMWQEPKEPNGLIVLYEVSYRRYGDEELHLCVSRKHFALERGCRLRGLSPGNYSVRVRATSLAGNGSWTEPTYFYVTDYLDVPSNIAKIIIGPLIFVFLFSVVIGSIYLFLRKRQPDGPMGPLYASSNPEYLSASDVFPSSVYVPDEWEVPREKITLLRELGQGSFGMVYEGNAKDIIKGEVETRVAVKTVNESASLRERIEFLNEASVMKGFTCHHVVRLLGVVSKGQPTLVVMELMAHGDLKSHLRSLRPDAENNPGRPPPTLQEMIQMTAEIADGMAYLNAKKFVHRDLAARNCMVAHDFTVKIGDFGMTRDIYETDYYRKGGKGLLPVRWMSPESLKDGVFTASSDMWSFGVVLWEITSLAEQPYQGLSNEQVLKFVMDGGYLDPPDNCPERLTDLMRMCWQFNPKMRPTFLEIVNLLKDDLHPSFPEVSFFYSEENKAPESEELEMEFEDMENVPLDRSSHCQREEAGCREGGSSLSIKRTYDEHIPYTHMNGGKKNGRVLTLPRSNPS

Turning to `O=C(CCc1ccc(O)c(O)c1)OCc1cccc2ccccc12` [DHH105, 3,4-dihydroxyhydrocinnamic acid naphthalene methyl ester], the “PI3-kinase activity (conversion of PI to PIP3)” value in series [1] is “significantly increased”. In addition, the blood glucose levels result in series [2] was “significantly decreased”. In series [3], the “amount of GLUT4 in the microsomal membrane fraction” value is recorded as “decreased” and the “immunoreactive GLUT4 in the plasma membrane fraction” value was “increased”. In addition, the “binding of [125I]-insulin to adipocytes, DHH105 together with insulin” value in series [4] (500 μM DHH105 plus insulin) is “further inhibited”. Besides, the “binding of [125I]-insulin to adipocytes” value in series [4] (16° C.) was “inhibited”.
